Data from PubChem BioAssay (NCI).
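Following 48 hours of exposure in 96-well plates, responses at five concentrations were used to interpolate endpoints linearly. At the TGI there is no net growth.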

Experiments:
Experiment in all cases: NCI tumour cell line growth inhibition, 48 h
[1] = test system: NCI-H522 lung
[2] = test system: TK-10 renal
[3] = test system: SK-MEL-2 melanoma
[4] = test system: SK-MEL-28 melanoma
[5] = test system: 786-0 renal
[6] = test system: SF-539 CNS
[7] = test system: EKVX NSCLC
[8] = test system: A549 NSCLC
[9] = test system: CCRF-CEM leukemia
[10] = test system: SF-268 CNS
[11] = test system: NCI-H460 lung
[12] = test system: UACC-62 melanoma
[13] = test system: RPMI-8226 leukemia
[14] = test system: HOP-92 NSCLC
[15] = test system: SNB-75 CNS
[16] = test system: MDA-MB-435
[17] = test system: MDA-MB-231 breast

Measured: TGI

Cc1nc(-n2nc(-c3ccccc3)cc2-c2ccccc2)sc1C(=O)/C=C/c1ccc(Cl)c(Cl)c1
19.9 µM: [12]
> 100 µM: [2] | [3] | [4] | [7] | [8] | [10] | [11]
21.6 µM: [1]
69.7 µM: [9]
33.5 µM: [5]
44.5 µM: [6]

C[C@@H]1O[C@]2(O)[C@@H]3CCCN3S(=O)(=O)CCN2C1=O
> 100 µM: [13] | [14] | [1] | [2] | [4] | [5] | [6] | [7] | [8] | [15] | [9] | [10] | [11] | [12]

CC(C)N(C(=O)C12C3C4C1C1C2C3C41I)C(C)C (stereo unspecified)
> 100 µM: [14] | [1] | [2] | [4] | [5] | [7] | [8] | [15] | [9] | [10] | [11] | [12]

CCN(CC)CC(=O)NC1c2ccccc2Oc2c(C)cccc21 (stereo unspecified)
> 100 µM: [13] | [2] | [4] | [5] | [6] | [7] | [8] | [15] | [9] | [10] | [11] | [12]

O=C(Cc1ccc([N+](=O)[O-])c([N+](=O)[O-])c1CC(=O)C(=O)Nc1cc(Cl)ccc1Cl)C(=O)Nc1cc(Cl)ccc1Cl
> 100 µM: [13] | [14] | [2] | [3] | [4] | [5] | [6] | [7] | [8] | [15] | [9] | [10] | [11] | [12]

CC12C(=C(C#N)C(=N)N1c1ccc(Cl)c(Cl)c1)C=C(O)CC2SCCS(=O)(=O)O (stereo unspecified)
> 100 µM: [13] | [14] | [1] | [2] | [3] | [4] | [5] | [6] | [7] | [8] | [15] | [9] | [10] | [12]

CCOC(=O)c1nc2ccccc2nc1Nc1ccc(OC)cc1
93.2 µM: [15]
66.6 µM: [12]
54.4 µM: [14]
51.3 µM: [17]
> 100 µM: [13] | [1] | [2] | [3] | [16] | [4] | [5] | [7] | [8] | [9] | [10] | [11]
52.1 µM: [6]

CCc1[nH]c(=O)c2oc3cc4ccccc4cc3c2c1C(=O)O
> 10 µM: [14] | [1] | [2] | [3] | [5] | [6] | [7] | [8] | [15] | [17] | [10] | [11]

CC1(C)OCN(c2ccc(S(N)(=O)=O)cc2)Cn2c1nc1ccccc12
> 100 µM: [13] | [14] | [1] | [2] | [3] | [4] | [5] | [6] | [7] | [8] | [15] | [9] | [10] | [11] | [12]

N#C/C(=C\c1cc(O)ccc1O)C(N)=O
88.1 µM: [12]
41 µM: [1]
90.8 µM: [15]
65.6 µM: [13]
> 100 µM: [14] | [2] | [3] | [4] | [5] | [6] | [7] | [8] | [10] | [11]
53.9 µM: [9]

C#CCNC(=O)NCCCCC(NC(C)=O)C(=O)NCc1ccccc1 (stereo unspecified)
> 100 µM: [13] | [14] | [1] | [2] | [4] | [5] | [6] | [7] | [8] | [15] | [9] | [10] | [11] | [12]

Cc1cc(C)c2c(c1)N[S@@](=O)S2
95.1 µM: [4]
88.5 µM: [13]
80.3 µM: [2]
28.9 µM: [5]
82.9 µM: [3]
50.5 µM: [6]
34.5 µM: [10]
46.5 µM: [11]
31.9 µM: [1]
> 100 µM: [14] | [7] | [8] | [15]
37.9 µM: [12]
61.3 µM: [9]

CC/C(=N/O)c1ccc2[nH]c3c(C)cc([N+](=O)[O-])c(C)c3c2c1
> 100 µM: [13] | [1] | [2] | [3] | [4] | [5] | [6] | [7] | [8] | [15] | [9] | [10] | [11]

Cc1nc(N)c(-c2ccccc2)s1
> 100 µM: [14] | [1] | [2] | [3] | [4] | [5] | [6] | [7] | [8] | [15] | [10] | [11] | [12]
> 73.9 µM: [9]
> 72.1 µM: [13]

CSC1=C(C(=O)Nc2ccc(C)cc2)C(N)=NC1=O
> 100 µM: [13] | [14] | [2] | [16] | [4] | [5] | [6] | [7] | [15] | [9] | [17] | [10] | [11] | [12]

COc1ccc2c(c1)[n+](=O)c(C(=O)C/C(=N/NC(=O)C[N+](C)(C)C)C(=O)Nc1cccc(C)c1C)c(C)n2O
> 100 µM: [13] | [14] | [1] | [3] | [4] | [5] | [6] | [7] | [8] | [15] | [10] | [11] | [12]
